In the experiment the target is T1, BRM (Homo sapiens, UniProt P51531).
T1 construct: In-Cell Western Screen of BRM Degradation in SW1573 Cells; endogenous in cells; host or cells: SW1573
Kind of experiment: In-cell Western screen of BRM degradation in SW1573 cells (Dmax and DC50). The class given is cell-based. The method in brief: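 SW1573, overnight cpd exposure (18-20 h), 0.1% DMSO final. PFA fix, 0.5% Triton permeabilization, block; IR secondaries at 800/680 nm. Odyssey read → Dmax, DC50.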

The mark [1] stands for this setting: SW1573, % degraded, when tested at the top concentration of between 0.3 and 10 μM, read-out: BRM Dmax (%).
Setting [2] is: target protein degradation, read-out: BRM DC50.
[3] abbreviates: BRM degradation, SW1573 cells, read-out: DC50.
Where [4] appears, read: BRM degradation, read-out: BRM DC50.
[5] abbreviates: BRM degradation, SW1573 cells, when tested at the top concentration of between 0.3 and 10 μM, read-out: Dmax (%) (% degraded).
The mark [6] stands for this setting: BRM degradation, SW1573 cells, tested at the top concentration of between 0.3 and 10 μM, read-out: Dmax (%) (% degraded).

Read-outs that look alike come from different tables or passages of the source.

The term Dmax denotes the greatest extent of degradation seen. As usually defined, the DC50 is the concentration at which degradation of the target reaches its halfway point.

T1 sequence (P51531 whole entry): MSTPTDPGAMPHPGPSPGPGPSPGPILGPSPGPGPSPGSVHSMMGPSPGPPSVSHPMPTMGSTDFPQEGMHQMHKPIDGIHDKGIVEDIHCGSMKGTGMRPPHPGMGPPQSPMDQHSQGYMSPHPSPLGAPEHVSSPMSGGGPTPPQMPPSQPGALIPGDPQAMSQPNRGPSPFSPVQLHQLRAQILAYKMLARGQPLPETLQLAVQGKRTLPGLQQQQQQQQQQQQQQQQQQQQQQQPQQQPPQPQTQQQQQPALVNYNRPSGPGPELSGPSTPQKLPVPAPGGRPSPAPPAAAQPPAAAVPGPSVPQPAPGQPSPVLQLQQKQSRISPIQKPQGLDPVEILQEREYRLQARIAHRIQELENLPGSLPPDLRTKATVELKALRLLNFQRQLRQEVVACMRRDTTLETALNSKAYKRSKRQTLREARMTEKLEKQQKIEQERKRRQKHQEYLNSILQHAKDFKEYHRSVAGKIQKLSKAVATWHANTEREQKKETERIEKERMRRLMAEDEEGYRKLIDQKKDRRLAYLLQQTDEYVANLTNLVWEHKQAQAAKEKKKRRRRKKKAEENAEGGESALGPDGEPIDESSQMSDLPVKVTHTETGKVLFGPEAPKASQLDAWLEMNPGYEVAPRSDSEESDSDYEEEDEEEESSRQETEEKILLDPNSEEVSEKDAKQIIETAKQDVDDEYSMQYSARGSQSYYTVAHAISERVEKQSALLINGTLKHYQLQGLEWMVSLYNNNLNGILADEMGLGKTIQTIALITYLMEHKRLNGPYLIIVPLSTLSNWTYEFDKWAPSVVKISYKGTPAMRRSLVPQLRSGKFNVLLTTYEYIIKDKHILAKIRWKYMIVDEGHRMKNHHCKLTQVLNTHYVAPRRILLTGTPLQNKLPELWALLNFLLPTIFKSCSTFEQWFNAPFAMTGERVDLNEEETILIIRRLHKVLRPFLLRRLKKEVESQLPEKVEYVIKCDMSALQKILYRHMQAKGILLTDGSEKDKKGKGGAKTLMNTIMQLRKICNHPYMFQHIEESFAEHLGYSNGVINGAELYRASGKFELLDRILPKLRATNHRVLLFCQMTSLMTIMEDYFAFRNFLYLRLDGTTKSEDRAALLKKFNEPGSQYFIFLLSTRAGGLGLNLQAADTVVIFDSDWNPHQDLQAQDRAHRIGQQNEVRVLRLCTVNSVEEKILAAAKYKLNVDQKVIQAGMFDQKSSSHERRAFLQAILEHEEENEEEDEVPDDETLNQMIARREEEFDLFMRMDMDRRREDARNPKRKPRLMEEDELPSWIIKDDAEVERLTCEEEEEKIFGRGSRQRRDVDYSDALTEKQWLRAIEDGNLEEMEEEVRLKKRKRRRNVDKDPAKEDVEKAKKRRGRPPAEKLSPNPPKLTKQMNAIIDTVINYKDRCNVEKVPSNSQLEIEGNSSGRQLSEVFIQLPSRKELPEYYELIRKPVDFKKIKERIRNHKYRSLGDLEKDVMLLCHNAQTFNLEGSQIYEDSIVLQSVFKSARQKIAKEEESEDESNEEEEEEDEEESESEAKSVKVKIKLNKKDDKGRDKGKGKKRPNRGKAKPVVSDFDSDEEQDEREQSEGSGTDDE

In the case of `Cc1ncsc1-c1ccc([C@H](C)NC(=O)[C@@H]2C[C@@H](O)CN2C(=O)[C@@H](c2cc(OCCN3CCC(O[C@H]4C[C@H](Oc5cnnc(N6C7CCC6CN(c6cc(-c8ccccc8O)nnc6N)C7)c5)C4)CC3)no2)C(C)C)cc1` [compound 471, (2S,4R)-1-((2R)-2-(3-(2-(4-((1r,3R)-3-((6-(3-(3-amino-6-(2-hydroxyphenyl)pyridazin-4-yl)-3,8-diazabicyclo[3.2.1]octan-8-yl)pyridazin-4-yl)oxy)cyclobutoxy)piperidin-1-yl)ethoxy)isoxazol-5-yl)-3-methylbutanoyl)-4-hydroxy-N-((S)-1-(4-(4-methylthiazol-5-yl)phenyl)ethyl)pyrrolidine-2-carboxamide], under setting [1], the Dmax was over 75%. In addition, the half-maximal degradation concentration (DC50) under setting [2] is under 2.5 nM. On to `Cc1ncn(C)c1-c1ccc([C@H](C)NC(=O)[C@@H]2C[C@@H](O)CN2C(=O)[C@H](c2cc(OCCN3CCC(O[C@H]4C[C@H](Oc5cc(N6C7CCC6CN(c6cc(-c8ccccc8O)nnc6N)C7)ccn5)C4)CC3)no2)C(C)C)cc1` [compound 365, (2S,4R)-1-((2S)-2-(3-(2-(4-((1r,3S)-3-((4-(3-(3-amino-6-(2-hydroxyphenyl)pyridazin-4-yl)-3,8-diazabicyclo[3.2.1]octan-8-yl)pyridin-2-yl)oxy)cyclobutoxy)piperidin-1-yl)ethoxy)isoxazol-5-yl)-3-methylbutanoyl)-N-((S)-1-(4-(1,4-dimethyl-1H-imidazol-5-yl)phenyl)ethyl)-4-hydroxypyrrolidine-2-carboxamide], for which the DC50 under setting [2] is over 30 nM. Turning to `Cc1ncsc1-c1ccc([C@H](C)NC(=O)[C@@H]2C[C@@H](O)CN2C(=O)[C@H](c2onc(OCCN3CCC(O[C@H]4C[C@H](Oc5cc(N6C7CCC6CN(c6cc(-c8ccccc8O)nnc6N)C7)ccn5)C4)CC3)c2F)C(C)C)cn1` [compound 269, (2S,4R)-1-((2S)-2-(3-(2-(4-((1r,3S)-3-((4-(3-(3-amino-6-(2-hydroxyphenyl)pyridazin-4-yl)-3,8-diazabicyclo[3.2.1]octan-8-yl)pyridin-2-yl)oxy)cyclobutoxy)piperidin-1-yl)ethoxy)-4-fluoroisoxazol-5-yl)-3-methylbutanoyl)-4-hydroxy-N-((S)-1-(6-(4-methylthiazol-5-yl)pyridin-3-yl)ethyl)pyrrolidine-2-carboxamide], the DC50 under setting [3] is over 30 nM. Regarding `Cc1ncsc1-c1ccc([C@H](CCC#N)NC(=O)[C@@H]2C[C@@H](O)CN2C(=O)[C@H](c2cc(OCCN3CCC(O[C@H]4C[C@H](Oc5cc(N6C7CCC6CN(c6cc(-c8ccccc8O)nnc6N)C7)ccn5)C4)CC3)no2)C(C)C)cc1` [compound 532, (2S,4R)-1-((2S)-2-(3-(2-(4-((1r,3S)-3-((4-(3-(3-amino-6-(2-hydroxyphenyl)pyridazin-4-yl)-3,8-diazabicyclo[3.2.1]octan-8-yl)pyridin-2-yl)oxy)cyclobutoxy)piperidin-1-yl)ethoxy)isoxazol-5-yl)-3-methylbutanoyl)-N-((S)-3-cyano-1-(4-(4-methylthiazol-5-yl)phenyl)propyl)-4-hydroxypyrrolidine-2-carboxamide], under setting [4], the DC50 is over 30 nM. In the case of `Cc1ncsc1-c1ccc([C@H](CN)NC(=O)[C@@H]2C[C@@H](O)CN2C(=O)[C@@H](c2cc(OCCN3CCN(CCOc4cc(N5C6CCC5CN(c5cc(-c7ccccc7O)nnc5N)C6)ccn4)CC3)no2)C(C)C)cc1` [compound 103, (2S,4R)-N-((R)-2-amino-1-(4-(4-methylthiazol-5-yl)phenyl)ethyl)-1-((2R)-2-(3-(2-(4-(2-((4-(3-(3-amino-6-(2-hydroxyphenyl)pyridazin-4-yl)-3,8-diazabicyclo[3.2.1]octan-8-yl)pyridin-2-yl)oxy)ethyl)piperazin-1-yl)ethoxy)isoxazol-5-yl)-3-methylbutanoyl)-4-hydroxypyrrolidine-2-carboxamide], under setting [3], the DC50 lay within 2.5 to 10 nM. For the same compound, under setting [5], the Dmax is over 75%. `Cc1ncsc1-c1ccc([C@H](C)NC(=O)[C@@H]2C[C@@H](O)CN2C(=O)[C@@H](c2cc(N3CC(CN4CC(COc5cc(N6C7CCC6CN(c6cc(-c8ccccc8O)nnc6N)C7)ccn5)C4)C3)no2)C(C)C)cc1` [compound 519, (2S,4R)-1-((2R)-2-(3-(3-((3-(((4-(3-(3-amino-6-(2-hydroxyphenyl)pyridazin-4-yl)-3,8-diazabicyclo[3.2.1]octan-8-yl)pyridin-2-yl)oxy)methyl)azetidin-1-yl)methyl)azetidin-1-yl)isoxazol-5-yl)-3-methylbutanoyl)-4-hydroxy-N-((S)-1-(4-(4-methylthiazol-5-yl)phenyl)ethyl)pyrrolidine-2-carboxamide]: under setting [4], the DC50 was over 30 nM.

For `Cc1ncsc1-c1ccc(CNC(=O)[C@@H]2C[C@@H](O)CN2C(=O)[C@@H](c2cc(OCC#Cc3ccc(O[C@H]4C[C@H](Oc5cc(N6C7CCC6CN(c6cc(-c8ccccc8O)nnc6N)C7)ccn5)C4)cn3)no2)C(C)C)cc1` [compound 221, (2S,4R)-1-((2R)-2-(3-((3-(5-((1r,3R)-3-((4-(3-(3-amino-6-(2-hydroxyphenyl)pyridazin-4-yl)-3,8-diazabicyclo[3.2.1]octan-8-yl)pyridin-2-yl)oxy)cyclobutoxy)pyridin-2-yl)prop-2-yn-1-yl)oxy)isoxazol-5-yl)-3-methylbutanoyl)-4-hydroxy-N-(4-(4-methylthiazol-5-yl)benzyl)pyrrolidine-2-carboxamide], under setting [3], the 50% degradation concentration (DC50) was under 2.5 nM. In addition, the greatest degradation seen (Dmax) under setting [6] was over 75%. In the same order, the values of `Cc1ncsc1-c1ccc([C@H](C)NC(=O)[C@@H]2C[C@@H](O)CN2C(=O)[C@H](c2cc(N3CCN(CCN4CCC(O[C@H]5C[C@H](Oc6cc(N7C8CCC7CN(c7cc(-c9ccccc9O)nnc7N)C8)ccn6)C5)CC4)CC3)no2)C(C)C)cc1` [compound 195, (2S,4R)-1-((2S)-2-(3-(4-(2-(4-((1r,3r)-3-((4-(3-(3-amino-6-(2-hydroxyphenyl)pyridazin-4-yl)-3,8-diazabicyclo[3.2.1]octan-8-yl)pyridin-2-yl)oxy)cyclobutoxy)piperidin-1-yl)ethyl)piperazin-1-yl)isoxazol-5-yl)-3-methylbutanoyl)-4-hydroxy-N-((S)-1-(4-(4-methylthiazol-5-yl)phenyl)ethyl)pyrrolidine-2-carboxamide] are over 30 nM and over 75%. Turning to `Cc1nccn1-c1ccc([C@H](C)NC(=O)[C@@H]2C[C@@H](O)CN2C(=O)[C@H](c2cc(OCC#Cc3ncc(O[C@H]4C[C@H](Oc5cc(N6C7CCC6CN(c6cc(-c8ccccc8O)nnc6N)C7)ccn5)C4)cn3)no2)C(C)C)cc1` [compound 393, (2S,4R)-1-((2S)-2-(3-((3-(5-((1r,3S)-3-((4-(3-(3-amino-6-(2-hydroxyphenyl)pyridazin-4-yl)-3,8-diazabicyclo[3.2.1]octan-8-yl)pyridin-2-yl)oxy)cyclobutoxy)pyrimidin-2-yl)prop-2-yn-1-yl)oxy)isoxazol-5-yl)-3-methylbutanoyl)-4-hydroxy-N-((S)-1-(4-(2-methyl-1H-imidazol-1-yl)phenyl)ethyl)pyrrolidine-2-carboxamide], the greatest degradation seen (Dmax) under setting [1] was over 75%. Under setting [2], the DC50 was over 30 nM. As to `Cc1ncsc1-c1ccc([C@H](CO)NC(=O)[C@@H]2C[C@@H](O)CN2C(=O)[C@@H](c2cc(OCCN3CCC(O[C@H]4C[C@H](Oc5cc(N6C7CCC6CN(c6cc(-c8ccccc8O)nnc6N)C7)ccn5)C4)CC3)no2)C(C)C)cc1` [compound 199, (2S,4R)-1-((2R)-2-(3-(2-(4-((1r,3R)-3-((4-(3-(3-amino-6-(2-hydroxyphenyl)pyridazin-4-yl)-3,8-diazabicyclo[3.2.1]octan-8-yl)pyridin-2-yl)oxy)cyclobutoxy)piperidin-1-yl)ethoxy)isoxazol-5-yl)-3-methylbutanoyl)-4-hydroxy-N-((R)-2-hydroxy-1-(4-(4-methylthiazol-5-yl)phenyl)ethyl)pyrrolidine-2-carboxamide], the half-maximal degradation concentration (DC50) under setting [3] was under 2.5 nM. In addition, the Dmax under setting [6] was over 75%. As to `Cc1nccn1-c1ccc([C@H](C)NC(=O)[C@@H]2C[C@@H](O)CN2C(=O)[C@H](c2cc(N3CCC(CN4CCC(O[C@H]5C[C@H](C#C[C@@H](C)n6cc(-c7cc(-c8ccccc8O)nnc7N)cn6)C5)CC4)CC3)no2)C(C)C)cc1` (single isomer, unassigned) [compound 637], the 50% degradation concentration (DC50) under setting [3] is 2.5 to 10 nM. The Dmax (BRM degradation, SW1573 cells, read-out: Dmax (% degraded)) is over 75%.

Turning to `Cc1ncsc1-c1ccc(CNC(=O)[C@@H]2C[C@@H](O)CN2C(=O)[C@H](C(C)C)N2Cc3ccccc3C2=O)c(OCCOCCOCCOCCn2cc(-c3cc(-c4ccccc4O)nnc3N)cn2)c1` [compound 12, (2S,4R)-N-(2-(2-(2-(2-(2-(4-(3-amino-6-(2-hydroxyphenyl)pyridazin-4-yl)-1H-pyrazol-1-yl)ethoxy)ethoxy)ethoxy)ethoxy)-4-(4-methylthiazol-5-yl)benzyl)-4-hydroxy-1-((S)-3-methyl-2-(1-oxoisoindolin-2-yl)butanoyl)pyrrolidine-2-carboxamide], under setting [3], the half-maximal degradation concentration (DC50) is over 30 nM. For the same compound, the Dmax under setting [5] is 50 to 75%. For `Cc1cc([C@H](C(=O)N2C[C@H](O)C[C@H]2C(=O)N[C@H](COCCOCCNc2ccc(-c3ccccc3O)nn2)c2ccc(-c3scnc3C)cc2)C(C)C)on1` [compound 524, (2S,4R)-4-hydroxy-N-((S)-2-(2-(2-((6-(2-hydroxyphenyl)pyridazin-3-yl)amino)ethoxy)ethoxy)-1-(4-(4-methylthiazol-5-yl)phenyl)ethyl)-1-((R)-3-methyl-2-(3-methylisoxazol-5-yl)butanoyl)pyrrolidine-2-carboxamide], the DC50 under setting [4] was over 30 nM.

The values above are taken from US12539292B2, “BRM targeting compounds and associated methods of use” (Arvinas Operations, Inc., priority 2018, dated 2026).
